Columns and labels:
NRel M. catarrhalis = settings: Mokrzan et al., 2018; cited from earlier work
[1] = tested on: established NTHI biofilms; settings: antibiotic at concentrations ≥4-fold below the MIC; Brockson et al., 2014; cited from earlier work
NTHI = assay: Antibiotic sensitivity of biofilm-resident, planktonic or NRel NTHI; assay type: cell-based, Nontypeable Haemophilus influenzae strain 86-028NP; settings: for sensitivity of biofilm-resident NTHI to killing: 16 h biofilm, same concentrations as for planktonic/NRel; for sensitivity of biofilm-resident NTHI to killing / killing of planktonic NTHI at the concentration chosen for the assay: 2 h antibiotic exposure; for sensitivity of anti-IHF NRel to killing, compared with planktonic NTHI / sensitivity of anti-IHF NRel to killing, compared with biofilm-resident NTHI: NRel collected after 15 min anti-IHF IgG, TMP-SMX 0.09/0.45 μg/ml, AMC 0.30/0.15 μg/ml; for sensitivity of anti-IHF NRel to killing, compared with planktonic NTHI: 2 h (FIG. 5d, 5e); for sensitivity of anti-IHF NRel to killing, compared with biofilm-resident NTHI / sensitivity of anti-rsPilA NRel to killing, compared with biofilm-resident NTHI: 2 h, P≤0.0001; for susceptibility of time-matched anti-IHF NRel to killing, compared with planktonic NTHI: NRel collected after 2 h anti-IHF IgG, TMP-SMX 0.94/4.7 μg/ml, AMC 2.5/1.25 μg/ml (FIG. 6c, 6d); for susceptibility of time-matched anti-rsPilA NRel to killing, compared with planktonic NTHI: NRel collected after 2 h anti-rsPilA IgG, TMP-SMX 0.09/0.45 μg per ml, AMC 0.3/0.15 μg per ml (FIG. 6a, 6b); for sensitivity of anti-rsPilA NRel to killing, compared with planktonic NTHI / sensitivity of anti-rsPilA NRel to killing, compared with biofilm-resident NTHI: NRel collected after 6 h anti-rsPilA IgG, TMP-SMX 0.94/4.7 μg per ml, AMC 2.5/1.25 μg per ml; for sensitivity of anti-rsPilA NRel to killing, compared with planktonic NTHI: 2 h (FIG. 5b, 5c); for killing of planktonic NTHI at the concentration chosen for the assay: mid-log planktonic NTHI density-matched to NRel
Protocol: To avoid excessive manipulation or dilution of NRel NTHI, and to permit direct comparison of equal numbers of planktonic and NRel, Applicant adjusted the planktonic cell density to the same CFU per ml as the NRel population in each experiment as follows: NTHI were incubated statically to mid log phase growth then diluted to either 3×10^8 CFU/ml for comparison with anti-rsPilA NRel collected at 6 h, or to 2×10^8 CFU/ml for comparison with anti-IHF NRel collected at 15 min (see FIG. 1). Applicant then determined the concentrations of amoxicillin (Sigma-Aldrich, St. Louis, MO) and clavulanate (U.S. Pharmacopeia, Rockville, MD), or of trimethoprim (Sigma-Aldrich) and sulfamethoxazole (Santa Cruz Biotech, Dallas, TX) that killed approximately 25% of planktonic NTHI at each density. The same antibiotic concentrations were used for the anti-IHF or anti-rsPilA NRel, the density-matched (same CFU/ml) planktonic NTHI, and the adherent biofilm for each relevant experiment. […] Applicant then assessed killing of anti-IHF or anti-rsPilA NRel by concentrations of amoxicillin plus clavulanic acid (“augmentin”, AMC) or trimethoprim plus sulfamethoxazole (TMP-SMX) that killed 25% of the planktonic NTHI at the same density.
Anti-rsPilA or anti-IHF NRel were collected and sonicated as described above. After sonication for 2 min in a water bath sonicator to break up any NTHI aggregates, NRel or planktonic NTHI were incubated with the indicated antibiotics at 37° C. for 2 h, then serially diluted and plated on chocolate agar to quantify viable NTHI. To assay biofilm-resident NTHI, biofilms were established for 16 h at 37° C. as described above, washed twice with DPBS and incubated in sBHI supplemented with the indicated antibiotics at 37° C. After 2 h, biofilm-resident NTHI were collected by forceful pipetting, sonicated for 2 min and enumerated as described above. All experiments were performed at least three times on separate days with two or three technical replicates for each treatment and control group.

NRel NTHI = settings: Mokrzan et al., 2018; cited from earlier work

Row | Molecule | susceptibility of NRel M. catarrhalis released by anti-rsPilA, compared with growth on agar (NRel M. catarrhalis) | sensitivity to killing of NTHI biofilms co-exposed to anti-DNABII antiserum, compared to planktonic counterparts [1] | sensitivity of biofilm-resident NTHI to killing (NTHI) | sensitivity of anti-IHF NRel to killing, compared with planktonic NTHI (NTHI) | sensitivity of anti-IHF NRel to killing, compared with biofilm-resident NTHI (NTHI) | susceptibility of time-matched anti-IHF NRel to killing, compared with planktonic NTHI (NTHI) | susceptibility of time-matched anti-rsPilA NRel to killing, compared with planktonic NTHI (NTHI) | sensitivity of anti-rsPilA NRel to killing, compared with planktonic NTHI (NTHI) | sensitivity of anti-rsPilA NRel to killing, compared with biofilm-resident NTHI (NTHI) | killing of planktonic NTHI at the concentration chosen for the assay (NTHI) | susceptibility of NRel NTHI released by anti-rsPilA, compared with growth on agar (NRel NTHI)
1 | CC[C@H]1OC(=O)[C@H](C)[C@@H](O[C@H]2C[C@@](C)(OC)[C@@H](O)[C@H](C)O2)[C@H](C)[C@@H](O[C@@H]2O[C@H](C)C[C@H](N(C)C)[C@H]2O)[C@](C)(OC)C[C@@H](C)C(=O)[C@H](C)[C@@H](O)[C@]1(C)O [clarithromycin] | more susceptible |  |  |  |  |  |  |  |  |  | 
2 | CC1(C)S[C@@H]2[C@H](NC(=O)[C@H](N)c3ccccc3)C(=O)N2[C@H]1C(=O)O [ampicillin] |  | significantly more sensitive |  |  |  |  |  |  |  |  | 
3 | amoxicillin plus clavulanic acid [AMC] |  | significantly more sensitive | minimal sensitivity | significantly more sensitive | significantly more sensitive | significantly more susceptible | equally susceptible | only equally as sensitive | significantly more sensitive | ~25% | 
4 | trimethoprim plus sulfamethoxazole [TMP-SMX] |  |  | minimal sensitivity | only equally as sensitive | significantly more sensitive | equally susceptible | significantly more susceptible | significantly greater | significantly more sensitive | ~25% | more susceptible
